Assay results taken from patent US11464780B2, “Pyrazolopyrimidine derivative and use thereof” (Simcere Pharmaceutical Co. Ltd., priority 2018, dated 2022).
Like-named read-outs stand apart in the source and are kept apart here.

Key:
[1] = biological target: T1, BaF3 ETV6-NTRK3-G623R stably transfected cell line (Homo sapiens, UniProt Q16288, G623R, cells depend on it); test: Cell proliferation inhibition (CellTiter-Glo); assay type: cell-based; conditions: 72 hours, read-out: The half maximal inhibitory concentration IC50 against cells, BaF3 ETV6-NTRK3-G623R
T1 construct: fused on or other part: P41212 (Transcription factor ETV6)
T1 sequence (Q16288 whole entry G623R, the tested form may be a part): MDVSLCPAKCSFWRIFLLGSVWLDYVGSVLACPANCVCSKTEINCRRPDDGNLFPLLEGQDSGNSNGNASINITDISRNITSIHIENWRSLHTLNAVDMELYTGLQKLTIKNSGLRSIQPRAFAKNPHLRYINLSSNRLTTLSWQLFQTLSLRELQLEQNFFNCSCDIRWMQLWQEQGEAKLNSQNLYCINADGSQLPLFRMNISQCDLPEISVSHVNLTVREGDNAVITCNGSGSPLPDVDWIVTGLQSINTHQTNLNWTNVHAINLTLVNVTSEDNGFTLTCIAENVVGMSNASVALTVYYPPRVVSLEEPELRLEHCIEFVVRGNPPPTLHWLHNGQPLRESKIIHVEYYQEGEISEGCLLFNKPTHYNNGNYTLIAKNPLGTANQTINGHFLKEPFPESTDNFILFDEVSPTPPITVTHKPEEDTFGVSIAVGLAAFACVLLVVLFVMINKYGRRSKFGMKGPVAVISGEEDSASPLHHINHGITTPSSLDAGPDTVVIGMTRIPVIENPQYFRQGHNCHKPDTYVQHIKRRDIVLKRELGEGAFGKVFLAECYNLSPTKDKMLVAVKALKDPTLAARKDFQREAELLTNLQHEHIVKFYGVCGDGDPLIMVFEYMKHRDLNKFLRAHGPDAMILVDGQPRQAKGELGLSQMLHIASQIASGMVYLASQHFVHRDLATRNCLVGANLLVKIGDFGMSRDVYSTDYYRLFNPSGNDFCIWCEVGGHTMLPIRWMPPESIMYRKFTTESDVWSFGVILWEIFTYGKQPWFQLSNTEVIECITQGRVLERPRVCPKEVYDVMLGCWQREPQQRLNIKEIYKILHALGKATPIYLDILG

[2] = biological target: T2, Ba/F3 LMNA-NTRK1-WT stably transfected cell line (Homo sapiens, UniProt P04629); test: Cell proliferation inhibition (CellTiter-Glo); assay type: cell-based; conditions: 72 hours, read-out: The half maximal inhibitory concentration IC50 against cells, Ba/F3 LMNA-NTRK1-WT
T2 construct: fused on or other part: P02545 (Prelamin-A/C)
T2 sequence (P04629 whole entry, stated change not applied, the tested form may be a part): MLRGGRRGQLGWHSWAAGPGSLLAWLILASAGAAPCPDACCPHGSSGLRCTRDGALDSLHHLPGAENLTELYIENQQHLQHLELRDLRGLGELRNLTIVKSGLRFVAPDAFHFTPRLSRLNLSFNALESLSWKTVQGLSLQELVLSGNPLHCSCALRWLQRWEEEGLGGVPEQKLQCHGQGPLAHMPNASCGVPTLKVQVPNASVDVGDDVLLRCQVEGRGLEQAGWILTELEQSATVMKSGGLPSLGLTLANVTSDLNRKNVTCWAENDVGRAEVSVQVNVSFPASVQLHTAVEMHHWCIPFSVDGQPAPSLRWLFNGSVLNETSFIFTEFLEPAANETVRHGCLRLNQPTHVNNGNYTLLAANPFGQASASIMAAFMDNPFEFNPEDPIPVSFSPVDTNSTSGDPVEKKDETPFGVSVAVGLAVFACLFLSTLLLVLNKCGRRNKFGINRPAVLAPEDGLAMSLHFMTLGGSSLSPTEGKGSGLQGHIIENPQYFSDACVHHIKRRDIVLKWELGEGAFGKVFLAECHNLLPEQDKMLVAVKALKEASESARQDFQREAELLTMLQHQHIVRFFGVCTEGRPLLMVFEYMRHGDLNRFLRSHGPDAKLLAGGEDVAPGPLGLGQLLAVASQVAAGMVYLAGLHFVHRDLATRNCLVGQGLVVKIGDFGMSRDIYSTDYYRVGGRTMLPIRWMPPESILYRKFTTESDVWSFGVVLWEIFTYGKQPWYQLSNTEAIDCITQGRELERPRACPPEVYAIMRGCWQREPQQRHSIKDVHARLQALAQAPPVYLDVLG
Protocol: Adenosine Tri-Phosphate (ATP) is an energy carrier shared by various life activities in nature, and is the smallest unit of energy storage and transfer. The CellTiter-Glo™ cell viability detection kit uses luciferase as the detection substance, and luciferase requires the participation of ATP during the process of luminescence. CellTiter-Glo™ reagent is added to cell culture medium, and the luminescent intensity is measured. The luminescent signal is directly proportional to the amount of ATP in the system, and ATP is positively related to the number of living cells. Therefore, by using the CellTiter-Glo kit to detect ATP content, cell proliferation can be detected. In this assay, the cell line is Ba/F3 LMNA-NTRK1-WT stably transfected cell line, with 5000 cells/well.
IC50 Determination Process:
1. Cell Culture and Inoculation
a) the cells in the logarithmic growth phase were harvested, and counted with a platelet counter. Trypan blue exclusion method was used to detect cell viability to ensure the cell viability was no less than 90%.
b) the cell concentration was adjusted; 90 μL of cell suspension was added respectively into a 96-well plate.
c) the cells in the 96-well plates was cultured under conditions of 37° C., 5% CO2 and 95% humidity overnight.
2. Drug Dilution and Administration
a) 10-fold drug solutions were prepared, the highest concentration was 10 μM, 9 concentrations, 3-fold diluted (refer to Appendix I). 10 μL of each drug solution was added to each well of the 96-well plate seeded with the cells in triplicate.
b) the cells in the 96-well plate added with the drug were cultured under conditions of 37° C., 5% CO2 and 95% humidity for 72 hours, and then CTG (cell proliferation) was performed.
a) CellTiter-Glo™ reagent was thawed, and the cell plate was equilibrated at room temperature for 30 minutes.
b) CellTiter-Glo™ reagent of a same volume was added to each well;
c) the cell plate was shaken on an orbital shaker for 5 minutes to lyse the cells.
d) the cell plate was placed at room temperature for 20 minutes to stabilize the luminescent signal.
e) the luminescent intensity was read.
GraphPad Prism 5.0 software was used to analyze the data, nonlinear S-curve regression was used to fit the data to obtain dose-effect curve, and IC50 value was calculated therefrom.

[3] = In vivo pharmacokinetic test in mice; set-up: species or system male CD-1 mice; conditions: for Vd / AUC(0-t) / half-life / bioavailability / Cmax / Tmax: male, CD-1, mouse, plasma; for Vd: read-out: Apparent volume of distribution Vd; for AUC(0-t): read-out: Area under the curve AUC0-last; for half-life: read-out: Half life T1/2 (converted); for bioavailability: PO dose of 10 mL/kg vs IV 3 mg/kg, read-out: Bioavailability F %; for Cmax: read-out: Peak concentration Cmax; for Tmax: read-out: Time of peak concentration Tmax
Protocol: Experimental object: male CD-1 mice aged 7-9 weeks were used as the experimental animals, the LC/MS/MS method was used to determine the drug concentrations in plasma at different time points after single intravenous (IV) and intragastric (PO) administration of the compounds, in vivo pharmacokinetic behaviors of the compounds of the present disclosure in mice were studied, and pharmacokinetic characteristics thereof were evaluated. Drug preparation: The compounds were prepared into clear solutions with 5% DMSO+10% solutol+85% water as solvent for administration in IV (intravenous) group and PO (intragastric). The dose of the compounds: IV dose of 3 mg/kg, and PO dose of […].

[4] = biological target: T3, Ba/F3 SLC34A2-ROS1-WT stably transfected cell line (Homo sapiens, UniProt P08922); test: Cell proliferation inhibition (CellTiter-Glo); assay type: cell-based; conditions: 72 hours, read-out: The half maximal inhibitory concentration IC50 against cells, Ba/F3 SLC34A2-ROS1-WT
T3 construct: fused on or other part: O95436 (Sodium-dependent phosphate transport protein 2B)
T3 sequence (P08922 whole entry, stated change not applied, the tested form may be a part): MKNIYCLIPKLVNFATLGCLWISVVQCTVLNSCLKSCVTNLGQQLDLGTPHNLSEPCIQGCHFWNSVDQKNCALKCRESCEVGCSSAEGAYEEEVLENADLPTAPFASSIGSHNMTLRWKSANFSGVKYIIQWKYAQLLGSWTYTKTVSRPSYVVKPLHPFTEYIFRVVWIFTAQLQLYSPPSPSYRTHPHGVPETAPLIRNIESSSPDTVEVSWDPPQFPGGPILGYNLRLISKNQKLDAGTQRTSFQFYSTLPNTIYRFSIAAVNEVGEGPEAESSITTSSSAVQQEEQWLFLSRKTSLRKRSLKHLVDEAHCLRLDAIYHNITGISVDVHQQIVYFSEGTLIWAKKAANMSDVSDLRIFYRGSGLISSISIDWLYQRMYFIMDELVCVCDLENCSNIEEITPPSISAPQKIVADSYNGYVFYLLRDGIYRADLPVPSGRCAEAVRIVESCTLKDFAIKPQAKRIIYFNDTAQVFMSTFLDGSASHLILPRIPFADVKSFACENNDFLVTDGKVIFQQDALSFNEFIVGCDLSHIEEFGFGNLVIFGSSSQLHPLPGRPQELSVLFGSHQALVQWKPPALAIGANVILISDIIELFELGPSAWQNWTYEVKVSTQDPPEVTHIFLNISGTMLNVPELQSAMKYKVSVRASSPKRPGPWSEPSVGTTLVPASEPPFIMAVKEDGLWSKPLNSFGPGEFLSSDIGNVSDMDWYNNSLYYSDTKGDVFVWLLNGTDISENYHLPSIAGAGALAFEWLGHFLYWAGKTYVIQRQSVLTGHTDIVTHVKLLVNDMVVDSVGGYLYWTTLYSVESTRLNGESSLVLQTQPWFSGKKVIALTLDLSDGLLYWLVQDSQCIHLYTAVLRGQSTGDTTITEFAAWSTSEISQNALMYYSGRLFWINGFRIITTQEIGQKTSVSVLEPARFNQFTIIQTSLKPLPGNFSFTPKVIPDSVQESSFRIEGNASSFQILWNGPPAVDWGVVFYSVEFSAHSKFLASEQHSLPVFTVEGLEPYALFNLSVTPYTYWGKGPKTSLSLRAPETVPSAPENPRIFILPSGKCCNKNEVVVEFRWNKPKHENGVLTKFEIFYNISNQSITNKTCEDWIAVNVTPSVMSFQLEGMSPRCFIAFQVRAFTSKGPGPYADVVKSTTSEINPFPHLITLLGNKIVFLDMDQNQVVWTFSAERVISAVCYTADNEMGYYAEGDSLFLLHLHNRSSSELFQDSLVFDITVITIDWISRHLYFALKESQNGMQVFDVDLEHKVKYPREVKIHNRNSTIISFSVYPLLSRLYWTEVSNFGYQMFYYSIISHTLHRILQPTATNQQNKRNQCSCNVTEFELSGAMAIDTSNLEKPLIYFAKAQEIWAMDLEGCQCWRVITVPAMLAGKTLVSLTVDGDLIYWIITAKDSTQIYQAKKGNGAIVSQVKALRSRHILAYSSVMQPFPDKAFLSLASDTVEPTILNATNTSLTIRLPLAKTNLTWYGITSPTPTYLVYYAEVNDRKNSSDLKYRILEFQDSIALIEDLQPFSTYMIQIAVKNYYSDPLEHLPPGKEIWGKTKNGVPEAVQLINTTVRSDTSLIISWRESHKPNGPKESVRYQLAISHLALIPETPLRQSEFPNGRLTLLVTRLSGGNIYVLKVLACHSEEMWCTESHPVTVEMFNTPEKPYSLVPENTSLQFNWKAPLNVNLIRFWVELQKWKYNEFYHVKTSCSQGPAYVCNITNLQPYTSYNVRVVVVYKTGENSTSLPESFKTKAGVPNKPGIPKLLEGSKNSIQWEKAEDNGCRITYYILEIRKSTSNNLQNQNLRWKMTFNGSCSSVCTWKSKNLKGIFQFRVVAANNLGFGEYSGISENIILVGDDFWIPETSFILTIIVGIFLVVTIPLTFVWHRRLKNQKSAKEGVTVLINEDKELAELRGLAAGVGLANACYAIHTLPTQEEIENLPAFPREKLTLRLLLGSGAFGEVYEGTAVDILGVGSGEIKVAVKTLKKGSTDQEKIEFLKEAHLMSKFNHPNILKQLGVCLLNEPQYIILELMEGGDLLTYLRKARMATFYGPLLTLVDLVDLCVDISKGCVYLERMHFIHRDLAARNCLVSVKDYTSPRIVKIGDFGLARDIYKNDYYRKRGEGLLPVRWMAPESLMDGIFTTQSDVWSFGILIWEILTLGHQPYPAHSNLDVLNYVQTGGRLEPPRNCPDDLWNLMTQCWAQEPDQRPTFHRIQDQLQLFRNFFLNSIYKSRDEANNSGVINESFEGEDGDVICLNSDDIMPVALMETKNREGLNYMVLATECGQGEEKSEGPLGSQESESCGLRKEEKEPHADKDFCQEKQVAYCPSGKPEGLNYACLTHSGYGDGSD

[5] = biological target: T4, Ba/F3 LMNA-NTRK1-G595R stably transfected cell line (Homo sapiens, UniProt P04629, G595R, cells depend on it); test: Cell proliferation inhibition (CellTiter-Glo); assay type: cell-based; conditions: 72 hours, read-out: The half maximal inhibitory concentration IC50 against cells, Ba/F3 LMNA-NTRK1-G595R
T4 construct: fused on or other part: P02545 (Prelamin-A/C)
T4 sequence (P04629 whole entry G595R, the tested form may be a part): as the sequence (P04629 whole entry, stated change not applied, the tested form may be a part) above, with G595R counted along it

[6] = biological target: T5, Ba/F3 SLC34A2-ROS1-G2032R stably transfected cell line (Homo sapiens, UniProt P08922, G2032R, cells depend on it); test: Cell proliferation inhibition (CellTiter-Glo); assay type: cell-based; conditions: 72 hours, read-out: The half maximal inhibitory concentration IC50 against cells, Ba/F3 SLC34A2-ROS1-G2032R
T5 construct: fused on or other part: O95436 (Sodium-dependent phosphate transport protein 2B)
T5 sequence (P08922 whole entry G2032R, the tested form may be a part): as the sequence (P08922 whole entry, stated change not applied, the tested form may be a part) above, with G2032R counted along it

TrkA = biological target: T6, TrkA (Homo sapiens, UniProt P04629); test: Kinase inhibitory activity (33P-ATP filter binding, Reaction Biology Corp.); assay type: biochemical; conditions: read-out: The half maximal inhibitory concentration IC50 on the kinases, TrkA
T6 construct: purchased Reaction Biology Corp. (contract assay)
T6 sequence (P04629 33-796): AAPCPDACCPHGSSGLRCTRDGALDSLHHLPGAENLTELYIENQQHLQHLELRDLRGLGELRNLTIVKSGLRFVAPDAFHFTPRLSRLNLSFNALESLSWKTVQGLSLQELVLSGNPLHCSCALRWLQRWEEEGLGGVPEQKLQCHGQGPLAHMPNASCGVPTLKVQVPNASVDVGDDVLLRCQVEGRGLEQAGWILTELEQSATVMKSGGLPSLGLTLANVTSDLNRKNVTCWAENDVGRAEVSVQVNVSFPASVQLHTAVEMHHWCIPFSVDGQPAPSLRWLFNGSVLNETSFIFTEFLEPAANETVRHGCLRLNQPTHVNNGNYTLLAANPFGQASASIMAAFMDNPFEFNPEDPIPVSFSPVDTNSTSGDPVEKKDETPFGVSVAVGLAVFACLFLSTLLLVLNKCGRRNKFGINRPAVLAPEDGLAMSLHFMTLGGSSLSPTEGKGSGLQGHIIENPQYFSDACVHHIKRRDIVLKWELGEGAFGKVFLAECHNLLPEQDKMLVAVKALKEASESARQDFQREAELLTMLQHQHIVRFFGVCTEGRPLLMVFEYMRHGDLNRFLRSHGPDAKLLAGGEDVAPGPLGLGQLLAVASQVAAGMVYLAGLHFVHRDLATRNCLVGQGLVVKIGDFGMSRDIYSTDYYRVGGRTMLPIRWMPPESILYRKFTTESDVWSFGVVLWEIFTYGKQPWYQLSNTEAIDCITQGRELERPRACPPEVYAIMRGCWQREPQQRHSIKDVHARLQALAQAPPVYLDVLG
Protocol: (§1) The mixture was incubated at room temperature for 20 minutes. To the reaction mixture was added a certain concentration of ^33P-ATP to initiate the reaction, and then the mixture was incubated at room temperature for 120 minutes. The radioactivities of the reactants were determined by the method of filter binding. The final kinase activity was expressed as the ratio of the remaining kinase activity in the test sample to the kinase activity in the DMSO control group. The dose-effect curve was fitted by GraphPad software and the IC50 was calculated.

Ros1 = biological target: T7, Ros1 (Homo sapiens, UniProt P08922); test: as above; assay type: biochemical; conditions: read-out: The half maximal inhibitory concentration IC50 on the kinases, Ros1
T7 construct: purchased Reaction Biology Corp. (contract assay)
Protocol: as §1

TrkC = biological target: T8, TrkC (Homo sapiens, UniProt Q16288); test: as above; assay type: biochemical; conditions: read-out: The half maximal inhibitory concentration IC50 on the kinases, TrkC
T8 construct: purchased Reaction Biology Corp. (contract assay)
Protocol: as §1

TrkA-G667C = biological target: T9, TrkA-G667C (Homo sapiens, UniProt P04629, G667C); test: as above; assay type: biochemical; conditions: read-out: The half maximal inhibitory concentration IC50 on the kinases, TrkA-G667C
T9 construct: purchased Reaction Biology Corp. (contract assay)
T9 sequence (P04629 33-796 G667C): as the sequence (P04629 33-796) above, with G635C counted along it
Protocol: as §1

TrkA-G595R = biological target: T10, TrkA-G595R (Homo sapiens, UniProt P04629, G595R); test: as above; assay type: biochemical; conditions: read-out: The half maximal inhibitory concentration IC50 on the kinases, TrkA-G595R
T10 construct: purchased Reaction Biology Corp. (contract assay)
T10 sequence (P04629 33-796 G595R): as the sequence (P04629 33-796) above, with G563R counted along it
Protocol: as §1

Ros-G2032R = biological target: T11, Ros-G2032R (Homo sapiens, UniProt P08922, G2032R); test: as above; assay type: biochemical; conditions: read-out: The half maximal inhibitory concentration IC50 on the kinases, Ros-G2032R
T11 construct: purchased Reaction Biology Corp. (contract assay)
Protocol: as §1

ALK = biological target: T12, ALK (Homo sapiens, UniProt Q9UM73); test: as above; assay type: biochemical; conditions: read-out: The half maximal inhibitory concentration IC50 on the kinases, ALK
T12 construct: purchased Reaction Biology Corp. (contract assay)
Protocol: The inhibitory activities of the compounds on TrkA, TrkC, ALK, Ros1 and other kinases were determined by Reaction Biology Corp. To reaction buffer (20 mM Hepes (pH 7.5), 10 mM MgCl2, 1 mM EGTA, 0.02% Brij35, 0.02 mg/mL BSA, 0.1 mM Na3VO4, 2 mM DTT, 1% DMSO) were sequentially added a certain concentration of substrate, coenzyme factor, kinase and test compound (10 concentrations, 3-fold serial dilutions, DMSO at a final concentration of […]), and the mixture was mixed evenly. The mixture was incubated at room temperature for 20 minutes. To the reaction mixture was added a certain concentration of ^33P-ATP to initiate the reaction, and then the mixture was incubated at room temperature for 120 minutes. The radioactivities of the reactants were determined by the method of filter binding. The final kinase activity was expressed as the ratio of the remaining kinase activity in the test sample to the kinase activity in the DMSO control group. The dose-effect curve was fitted by GraphPad software and the IC50 was calculated.

[7] = biological target: T13, Ba/F3 LMNA-NTRK1-F589L stably transfected cell line (Homo sapiens, UniProt P04629, F589L, cells depend on it); test: Cell proliferation inhibition (CellTiter-Glo); assay type: cell-based; conditions: 72 hours, read-out: The half maximal inhibitory concentration IC50 against cells, Ba/F3 LMNA-NTRK1-F589L
T13 construct: fused on or other part: P02545 (Prelamin-A/C)
T13 sequence (P04629 whole entry F589L, the tested form may be a part): as the sequence (P04629 whole entry, stated change not applied, the tested form may be a part) above, with F589L counted along it

| GI50 [1] | GI50 [2] | Apparent clearance Cl ([3]; IV dose of 3 mg/kg) | Vd ([3]; IV dose of 3 mg/kg) | AUC(0-t) ([3]; IV dose of 3 mg/kg) | half-life ([3]; IV dose of 3 mg/kg) | bioavailability [3] | AUC(0-t) ([3]; PO dose of 10 mL/kg) | Cmax ([3]; PO dose of 10 mL/kg) | Tmax ([3]; PO dose of 10 mL/kg) | GI50 [4] | GI50 [5] | GI50 [6] | IC50 (TrkA) | IC50 (Ros1) | IC50 (TrkC) | IC50 (TrkA-G667C) | IC50 (TrkA-G595R) | IC50 (Ros-G2032R) | IC50 (ALK) | Structure (SMILES) | other results |
| --- | --- | --- | --- | --- | --- | --- | --- | --- | --- | --- | --- | --- | --- | --- | --- | --- | --- | --- | --- | --- | --- |
| 5.6 nM | 5.73 nM | 12.4 mL/kg/min | 0.44 L/kg | 10.5 µM·h | 30 min | 85% | 29.4 µM·h | 17.2 µM | 22.8 min | 17.9 nM | 9.1 nM | 259 nM | 13.1 nM | 0.35 nM | 0.09 nM | 26.4 nM | 10.7 nM | 2.65 nM | 19.4 nM | C[C@H]1CNC(=O)c2cnn3ccc(nc23)N2OCC[C@@H]2c2cc(F)cnc2O1 [WX005B] | – |
| 69.1 nM | 5.8 nM | 5.50 mL/kg/min | 0.47 L/kg | 22.1 µM·h | 52.8 min | 76% | 54.9 µM·h | 22.6 µM | 22.8 min | 10.1 nM | 12.4 nM | 165 nM | 2.8 nM | 0.13 nM | 0.05 nM | 2.85 nM | 5.18 nM | 0.73 nM | 11.6 nM | O=C1N[C@@H]2CCC[C@@H]2Oc2ncc(F)cc2[C@H]2CCON2c2ccn3ncc1c3n2 [WX007A] | – |
| 19.5 nM | 5.8 nM | 8.4 mL/kg/min | 0.68 L/kg | 14 µM·h | 55.2 min | 107% | 49.2 µM·h | 13 µM | 30 min | 10.4 nM | 20.9 nM | 58.1 nM | 3.1 nM | – | – | – | – | 0.61 nM | – | O=C1N[C@@H]2COCC[C@@H]2Oc2ncc(F)cc2[C@H]2CCON2c2ccn3ncc1c3n2 [WX010B] | GI50 [7]: 4.26 nM |
